Measured values taken from US20200216439A1, “HETERO-1,5,6,7-TETRAHYDRO-4H-INDOL-4-ONES” (BAYER PHARMA AKTIENGESELLSCHAFT, priority 2015, published 2020).

Target: T1, catalytic domain of human Bub1 (amino acids 704-1085) (Homo sapiens, UniProt O43683)
T1 construct: catalytic domain of human Bub1 (amino acids 704-1085); His6 (N); made in house; host or cells: Hi5 insect cells
Assay: Bub1 kinase assay (TR-FRET)
Assay type: biochemical
Conditions: TR-FRET; ATP 10 μM, peptide substrate 1 μM; 60 min at 22° C.; average or median if tested more than once; read-out: Inhibition of Bub1 kinase IC50
Summary of the method: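 Eleven concentrations (0.1 nM–20 μM, duplicate) fitted by 4-parameter logistic for IC50. Read-out: EDTA-stopped TR-FRET (665/620 nm) detecting anti-phosphoserine binding to biotin-peptide (1 μM). Reaction used 10 μM ATP, 60 min at 22 °C, after 15 min compound preincubation with His-tagged human Bub1 704-1085.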

T1 sequence (O43683 704-1085): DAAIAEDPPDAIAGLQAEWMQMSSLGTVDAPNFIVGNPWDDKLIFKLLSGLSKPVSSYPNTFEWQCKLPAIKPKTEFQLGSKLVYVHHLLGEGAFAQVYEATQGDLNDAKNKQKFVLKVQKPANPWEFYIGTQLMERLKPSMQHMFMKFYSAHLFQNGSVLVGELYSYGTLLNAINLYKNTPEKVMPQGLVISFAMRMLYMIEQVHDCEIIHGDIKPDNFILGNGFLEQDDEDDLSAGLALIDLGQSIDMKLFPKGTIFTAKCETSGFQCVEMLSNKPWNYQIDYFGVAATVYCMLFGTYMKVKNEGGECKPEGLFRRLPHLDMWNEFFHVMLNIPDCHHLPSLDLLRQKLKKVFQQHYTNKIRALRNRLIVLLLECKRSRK

| IC50 [nM] | SMILES |
| --- | --- |
| 4 | CC(=O)Nc1cc(-c2[nH]c3c(c2Nc2ccccc2)C(=O)CN(S(C)(=O)=O)C3)ccn1 [Example 32, N-{4-[6-(Methylsulfonyl)-4-oxo-3-(phenylamino)-4,5,6,7-tetrahydro-1H-pyrrolo[2,3-c]pyridin-2-yl]pyridin-2-yl}acetamide] |
| 46 | CC(=O)Nc1cc(-c2[nH]c3c(c2Nc2ccccc2)C(=O)CN(C(=O)c2cscn2)C3)ccn1 [Example 194, N-{4-[3-Anilino-4-oxo-6-(1,3-thiazol-4-ylcarbonyl)-4,5,6,7-tetrahydro-1H-pyrrolo[2,3-c]pyridin-2-yl]pyridin-2-yl}acetamide] |
| 17 | CNC(=O)N1CC(=O)c2c([nH]c(-c3ccnc(NC(C)=O)c3)c2Nc2ccc(F)cc2)C1 [Example 313, 2-[2-(Acetylamino)pyridin-4-yl]-3-[(4-fluorophenyl)amino]-N-methyl-4-oxo-1,4,5,7-tetrahydro-6H-pyrrolo[2,3-c]pyridine-6-carboxamide] |
| 10 | CC(C)(C)OC(=O)N1CC(=O)c2c([nH]c(-c3ccncc3)c2Nc2ccccc2)C1 [Example 3, tert-Butyl 4-oxo-3-(phenylamino)-2-(pyridin-4-yl)-1,4,5,7-tetrahydro-6H-pyrrolo[2,3-c]pyridine-6-carboxylate] |
| 9 | O=C1CN(S(=O)(=O)C2CC2)Cc2[nH]c(-c3ccncc3)c(Nc3ccccc3)c21 [Example 66, 6-(Cyclopropylsulfonyl)-3-(phenylamino)-2-(pyridin-4-yl)-1,5,6,7-tetrahydro-4H-pyrrolo[2,3-c]pyridin-4-one] |
| 31 | CC(=O)Nc1cc(-c2[nH]c3c(c2Nc2ccc(C)cc2)C(=O)CN(S(=O)(=O)C(C)C)C3)ccn1 [Example 318, N-(4-(3-[(4-Methylphenyl)amino]-4-oxo-(propan-2-ylsulfonyl)-1,5,6,7-tetrahydro-1H-pyrrolo[2,3-c]pyridin-2-yl)pyridin-2-yl)acetamide] |
| 7 | O=C1CN(S(=O)(=O)C2CCOCC2)Cc2[nH]c(-c3ccncc3)c(Nc3ccccc3)c21 [Example 70, 3-(phenylamino)-2-(pyridin-4-yl)-6-(tetrahydro-2H-pyran-4-ylsulfonyl)-1,5,6,7-tetrahydro-4H-pyrrolo[2,3-c]pyridin-4-one] |
| 5 | O=C(Nc1cc(-c2[nH]c3c(c2Nc2ccccc2)C(=O)CN(S(=O)(=O)c2cnc[nH]2)C3)ccn1)c1cncs1 [Example 161, N-{4-[3-Anilino-6-(1H-imidazol-5-ylsulfonyl)-4-oxo-4,5,6,7-tetrahydro-1H-pyrrolo[2,3-c]pyridin-2-yl]pyridin-2-yl}-1,3-thiazole-5-carboxamide] |
| 319 | CN1CCN(C(=O)N2CC(=O)c3c([nH]c(-c4ccncc4OCC(F)(F)F)c3Nc3ccccc3)C2)CC1 [Example 246, 6-[(4-Methylpiperazin-1-yl)carbonyl]-3-(phenylamino)-2-[3-(2,2,2-trifluoroethoxy)pyridin-4-yl]-1,5,6,7-tetrahydro-4H-pyrrolo[2,3-c]pyridin-4-one] |
| 9 | CC(=O)Nc1cc(-c2[nH]c3c(c2Nc2ccccc2)C(=O)CN(C(C)=O)C3)ccn1 [Example 112, N-{4-[6-Acetyl-4-oxo-3-(phenylamino)-4,5,6,7-tetrahydro-1H-pyrrolo[2,3-c]pyridin-2-yl]pyridin-2-yl}acetamide] |
| 40 | O=C1CSCc2[nH]c(-c3ccncc3Cl)c(Nc3ccccc3)c21 [Example 38, 2-(3-Chloropyridin-4-yl)-3-(phenylamino)-1,7-dihydrothiopyrano[3,4-b]pyrrol-4(5H)-one] |
| 7 | CN(C)CCOc1cnccc1-c1[nH]c2c(c1Nc1ccccc1)C(=O)CN(C(=O)OC(C)(C)C)C2 [Example 276, tert-Butyl 2-3-[2-(dimethylamino)ethoxy]pyridin-4-yl-4-oxo-3-(phenylamino)-1,4,5,7-tetrahydro-6H-pyrrolo[2,3-c]pyridine-6-carboxylate] |
| 8 | CC(C)(C)CC(=O)N1CC(=O)c2c([nH]c(-c3ccncc3)c2Nc2ccccc2)C1 [Example 58, 6-(3,3-Dimethylbutanoyl)-3-(phenylamino)-2-(pyridin-4-yl)-1,5,6,7-tetrahydro-4H-pyrrolo[2,3-c]pyridin-4-one] |

Further lines, the molecule ahead of its results:

| SMILES | IC50 [nM] |
| --- | --- |
| CC(=O)N1CC(=O)c2c([nH]c(-c3ccnc(NC(=O)c4ccc(F)cc4C)c3)c2Nc2ccccc2)C1 [Example 265, N-4-[6-Acetyl-4-oxo-3-(phenylamino)-4,5,6,7-tetrahydro-1H-pyrrolo[2,3-c]pyridin-2-yl]pyridin-2-yl-4-fluoro-2-methylbenzamide] | 6 |
| O=C1CN(C(=O)c2ccccn2)Cc2[nH]c(-c3ccncc3)c(Nc3ccccc3)c21 [Example 61, 3-(phenylamino)-2-(pyridin-4-yl)-6-(pyridin-2-ylcarbonyl)-1,5,6,7-tetrahydro-4H-pyrrolo[2,3-c]pyridin-4-one] | 40 |
| CC(=O)Nc1cc(-c2[nH]c3c(c2Nc2ccccc2)C(=O)CN(C(=O)N2C[C@@H](C)O[C@@H](C)C2)C3)ccn1 [Example 255, N-4-[6-[(2R,6S)-2,6-Dimethylmorpholin-4-yl]carbonyl-4-oxo-3-(phenylamino)-4,5,6,7-tetrahydro-1H-pyrrolo[2,3-c]pyridin-2-yl]pyridin-2-ylacetamide] | 375 |
| COc1cnccc1-c1[nH]c2c(c1Nc1ccccc1)C(=O)CN(C(=O)OC(C)(C)C)C2 [Example 102, tert-Butyl 2-(3-methoxypyridin-4-yl)-4-oxo-3-(phenylamino)-1,4,5,7-tetrahydro-6H-pyrrolo[2,3-c]pyridine-6-carboxylate] | 17 |
| COc1cc(C(=O)Nc2cc(-c3[nH]c4c(c3Nc3ccccc3)C(=O)CN(C(=O)N3C[C@@H](C)O[C@@H](C)C3)C4)ccn2)ccc1F [Example 261, N-4-[6-[(2R,6S)-2,6-Dimethylmorpholin-4-yl]carbonyl-4-oxo-3-(phenylamino)-4,5,6,7-tetrahydro-1H-pyrrolo[2,3-c]pyridin-2-yl]pyridin-2-yl-4-fluoro-3-methoxybenzamide] | 351 |
| O=C1CN(C(=O)NC2CCOCC2)Cc2[nH]c(-c3ccncc3)c(Nc3ccccc3)c21 [Example 96, 4-Oxo-3-(phenylamino)-2-(pyridin-4-yl)-N-(tetrahydro-2H-pyran-4-yl)-1,4,5,7-tetrahydro-6H-pyrrolo[2,3-c]pyridine-6-carboxamide] | 55 |
| CN(C)S(=O)(=O)N1CC(=O)c2c([nH]c(-c3ccnc(NC(=O)C4(F)CC4)c3)c2Nc2ccccc2)C1 [Example 273, N-4-[6-(Dimethylsulfamoyl)-4-oxo-3-(phenylamino)-4,5,6,7-tetrahydro-1H-pyrrolo[2,3-c]pyridin-2-yl]pyridin-2-yl-1-fluorocyclopropanecarboxamide] | 11 |
| Cc1ccc(F)cc1C(=O)Nc1cc(-c2[nH]c3c(c2Nc2ccccc2)C(=O)CN(C(=O)OC(C)(C)C)C3)ccn1 [Example 268, tert-Butyl 2-2-[(5-fluoro-2-methylbenzoyl)amino]pyridin-4-yl-4-oxo-3-(phenylamino)-1,4,5,7-tetrahydro-6H-pyrrolo[2,3-c]pyridine-6-carboxylate] | 58 |
| CN(C)C(=O)N1CC(=O)c2c([nH]c(-c3ccncc3OCC(F)F)c2Nc2ccccc2)C1 [Example 238, 2-[3-(2,2-Difluoroethoxy)pyridin-4-yl]-N,N-dimethyl-4-oxo-3-(phenylamino)-1,4,5,7-tetrahydro-6H-pyrrolo[2,3-c]pyridine-6-carboxamide] | 8 |
| COc1cc(C(=O)Nc2cc(-c3[nH]c4c(c3Nc3ccccc3)C(=O)CN(C(=O)N3CCCC3)C4)ccn2)ccc1F [Example 262, 4-Fluoro-3-methoxy-N-4-[4-oxo-3-(phenylamino)-6-(pyrrolidin-1-ylcarbonyl)-4,5,6,7-tetrahydro-1H-pyrrolo[2,3-c]pyridin-2-yl]pyridin-2-ylbenzamide] | 8 |
| O=C(Nc1cc(-c2[nH]c3c(c2Nc2ccccc2)C(=O)COC3)ccn1)c1ccn[nH]1 [Example 145, N-[4-(3-Anilino-4-oxo-1,4,5,7-tetrahydropyrano[3,4-b]pyrrol-2-yl)pyridin-2-yl]-1H-pyrazole-5-carboxamide] | 16 |
| COc1ccc(C(=O)Nc2cc(-c3[nH]c4c(c3Nc3ccccc3)C(=O)CN(C(=O)N3C[C@@H](C)O[C@@H](C)C3)C4)ccn2)cc1F [Example 292, N-4-[6-[(2R,6S)-2,6-Dimethylmorpholin-4-yl]carbonyl-4-oxo-3-(phenylamino)-4,5,6,7-tetrahydro-1H-pyrrolo[2,3-c]pyridin-2-yl]pyridin-2-yl-3-fluoro-4-methoxybenzamide] | 214 |
| O=C1CN(S(=O)(=O)c2cnc[nH]2)Cc2[nH]c(-c3ccnc(NC(=O)C4CC4(F)F)c3)c(Nc3ccccc3)c21 (racemic) [Example 164, (1RS)—N-{4-[3-Anilino-6-(1H-imidazol-5-ylsulfonyl)-4-oxo-4,5,6,7-tetrahydro-1H-pyrrolo[2,3-c]pyridin-2-yl]pyridin-2-yl}-2,2-difluorocyclopropanecarboxamide] | 6 |
| O=C1CN(C(=O)CCO)Cc2[nH]c(-c3ccnc(NC(=O)[C@@H]4C[C@@H]4F)c3)c(Nc3ccccc3)c21 [Example 202, (1S,2S)-2-Fluoro-N-4-[6-(3-hydroxypropanoyl)-4-oxo-3-(phenylamino)-4,5,6,7-tetrahydro-1H-pyrrolo[2,3-c]pyridin-2-yl]pyridin-2-ylcyclopropanecarboxamide] | 8 |
| O=C1CN(S(=O)(=O)c2cnc[nH]2)Cc2[nH]c(-c3ccnc(NC(=O)[C@H]4C[C@H]4F)c3)c(Nc3ccccc3)c21 (relative stereo) [Example 163, rel-(1R,2R)—N-{4-[3-Anilino-6-(1H-imidazol-5-ylsulfonyl)-4-oxo-4,5,6,7-tetrahydro-1H-pyrrolo[2,3-c]pyridin-2-yl]pyridin-2-yl}-2-fluorocyclopropanecarboxamide] | 6 |
